According to US20240148821A1, “PHARMACEUTICAL USE OF CYCLIC PEPTIDE COMPOUND” (CHUGAI SEIYAKU KABUSHIKI KAISHA, priority 2021, published 2024):
Numbered stars: 1 amine (or outer) side, 2 acyl side, 3 side chain; on linkers, the order of the positions; unused ones are H or OH. Bridge positions count the residues as written; N and C are the ends. Square brackets hold non-standard residues; d marks the D form. Peptide text beside a SMILES is read from it. * marks the point of attachment. hPhe(3-Cl-4-CF3) = N[C@@H](CCc1ccc(C(F)(F)F)c(Cl)c1)C(=O)O; hPhe(3-F,4-CF3) = N[C@@H](CCc1ccc(C(F)(F)F)c(F)c1)C(=O)O; X49 = CN([C@@H](Cc1cccc(OC(F)(F)F)c1)C(=O)[*:2])[*:1]; NMePhe(3-Cl) = CN[C@@H](Cc1cccc(Cl)c1)C(=O)O; NMePhe(4-Cl) = CN[C@@H](Cc1ccc(Cl)cc1)C(=O)O; X51 = CN([C@@](C)(Cc1ccccc1)C(=O)[*:2])[*:1]; NMePhe(4-F) = CN[C@@H](Cc1ccc(F)cc1)C(=O)O; NMeMet(O2) = CN[C@@H](CCS(C)(=O)=O)C(=O)O; NMedβ3hAla = C[C@H](CC(=O)[*:2])N(C)[*:1]; NMeGly(cPent) = CN[C@H](C(=O)O)C1CCCC1; Phe(3-I) = N[C@@H](Cc1cccc(I)c1)C(=O)O; Phe(4-Me) = Cc1ccc(C[C@H](N)C(=O)O)cc1; dβ3hPip = O=C(C[C@H]1CCCCN1[*:1])[*:2]; NMeGly(cBu) = CN[C@H](C(=O)O)C1CCC1; NMeY = CN[C@@H](Cc1ccc(O)cc1)C(=O)O; NMeCha = CN[C@@H](CC1CCCCC1)C(=O)O; NMeChg = CN[C@H](C(=O)O)C1CCCCC1; NMeE = CN[C@@H](CCC(=O)O)C(=O)O; NMeD = CN[C@@H](CC(=O)O)C(=O)O; NMeL = CN[C@@H](CC(C)C)C(=O)O; NMehSer = CN[C@@H](CCO)C(=O)O; NMeV = CN[C@H](C(=O)O)C(C)C; d(β3hA) = C[C@@H](N)CC(=O)O; Iva = CC[C@](C)(N)C(=O)O; NMeA = CN[C@@H](C)C(=O)O; NMeAib = CNC(C)(C)C(=O)O; Nle = CCCC[C@H](N)C(=O)O; Piperidide = C1CCN(*)CC1; Ac5c = NC1(C(=O)O)CCCC1; Aze = O=C(O)[C@@H]1CCN1; Ac4c = NC1(C(=O)O)CCC1; Sar = CNCC(=O)O

System: Human pancreatic cancer cell line AsPC-1 (G12D mutation Kras)
Assay: AsPC-1 cell growth inhibition (AsPC-1 CGI)
Type: cell-based
Conditions: read-out: AsPC-1 cell growth inhibition, 50% growth inhibitory concentration (IC50 value); 96 hours, CellTiter-Glo, values classified in ranges
Method: Test compounds were serially dilated with dimethyl sulfoxide, and 200 nL was then dispensed to a U-bottom 96-well plate using Labcyte Echo. […] The cell suspension was dispensed to a. plate containing a test compound at 100 μL per well and incubated at 37° C. in a 5% carbon dioxide gas incubator. 96 hours later, 80 μL of CellTiter-Glo (Promega) was added to each well and fluorescence was measured.

Compound | IC50
CCCC[C@@H]1NC(=O)[C@H](Cc2cccc(I)c2)NC(=O)CN(C)C(=O)[C@H](Cc2ccc(OC)cc2)N(C)C(=O)CN(C)C(=O)CN(C)C(=O)[C@H]([C@@H](C)CC)NC(=O)[C@H](CC(C)C)N(C)C(=O)C[C@@H](C(=O)N2CCCCC2)N(C)C(=O)[C@H](CC(C)C)NC(=O)[C@](C)(Cc2ccccc2)N(C)C1=O [Compound 125] ([NMeL]I[Sar][Sar][NMeY](Me)[Sar][Phe(3-I)][Nle][X51]L[NMeD]-Piperidide; lactam N-11) | > 500 nM
CC[C@H](C)[C@@H]1NC(=O)[C@H](CC(C)C)N(C)C(=O)C[C@@H](C)NC(=O)[C@H](CC(C)C)N(C)C(=O)C2(CCC2)NC(=O)[C@@H]2CCCN2C(=O)[C@H](CCc2ccc(C(F)(F)F)c(F)c2)NC(=O)CN(C)C(=O)[C@H](CC2CCCCC2)N(C)C(=O)CN(C)C(=O)CN(C)C1=O [Compound 133] (cyclo([Ac4c][NMeL][d(β3hA)][NMeL]I[Sar][Sar][NMeCha][Sar][hPhe(3-F,4-CF3)]P)) | > 500 nM
CC[C@H](C)[C@@H]1NC(=O)[C@H](C)N(C)C(=O)C[C@@H](C(=O)N2CCCCC2)N(C)C(=O)[C@H](C(C)C)N(C)C(=O)C2(CCCC2)NC(=O)[C@@H]2CCCN2C(=O)[C@H](CCc2ccc(C(F)(F)F)c(Cl)c2)NC(=O)[C@H]2CCCN2C(=O)[C@H](CC2CCCCC2)N(C)C(=O)CN(C)C(=O)CN(C)C1=O [Compound 135] ([NMeA]I[Sar][Sar][NMeCha][dP][hPhe(3-Cl-4-CF3)]P[Ac5c][NMeV][NMeD]-Piperidide; lactam N-11) | > 500 nM
CC[C@H](C)[C@@H]1NC(=O)[C@H](CC(C)C)N(C)C(=O)C[C@@H](C(=O)N2CCCCC2)N(C)C(=O)[C@H](CCOC)N(C)C(=O)C2(CCCC2)NC(=O)[C@@H]2CCCN2C(=O)[C@H](CCc2ccc(C(F)(F)F)c(Cl)c2)NC(=O)CN(C)C(=O)[C@H](CC2CCCCC2)N(C)C(=O)[C@@H]2CCN2C(=O)[C@H](C)N(C)C1=O [Compound 141] ([NMeL]I[NMeA][Aze][NMeCha][Sar][hPhe(3-Cl-4-CF3)]P[Ac5c][NMehSer](Me)[NMeD]-Piperidide; lactam N-11) | > 500 nM
CC[C@H](C)[C@@H]1NC(=O)[C@H](CC(C)C)N(C)C(=O)C[C@H]2CCCCN2C(=O)[C@H](C(C)C)N(C)C(=O)C2(CCCC2)NC(=O)[C@@H]2CCCN2C(=O)[C@H](CCc2ccc(C(F)(F)F)c(F)c2)NC(=O)CN(C)C(=O)[C@H](CC2CCCCC2)N(C)C(=O)CN(C)C(=O)CN(C)C1=O [Compound 142] (cyclo([Ac5c][NMeV][dβ3hPip][NMeL]I[Sar][Sar][NMeCha][Sar][hPhe(3-F,4-CF3)]P)) | > 500 nM
CCCC[C@@H]1NC(=O)[C@H](Cc2cccc(I)c2)NC(=O)CN(C)C(=O)[C@H](Cc2ccc(Cl)cc2)N(C)C(=O)CN(C)C(=O)CN(C)C(=O)[C@H]([C@@H](C)CC)NC(=O)[C@H](CC(C)C)N(C)C(=O)C[C@@H](C(=O)N2CCCCC2)N(C)C(=O)[C@H](CC(C)C)NC(=O)[C@H](Cc2cccc(OC(F)(F)F)c2)N(C)C1=O [Compound 143] ([NMeL]I[Sar][Sar][NMePhe(4-Cl)][Sar][Phe(3-I)][Nle][X49]L[NMeD]-Piperidide; lactam N-11) | > 500 nM
CC[C@H](C)[C@@H]1NC(=O)[C@H](C)N(C)C(=O)C[C@@H](C)NC(=O)[C@H](C2CCCC2)N(C)C(=O)C2(CCCC2)NC(=O)[C@@H]2CCCN2C(=O)[C@H](CCc2ccc(C(F)(F)F)c(Cl)c2)NC(=O)CN(C)C(=O)[C@H](Cc2ccc(F)cc2)N(C)C(=O)[C@@H]2CCCN2C(=O)CN(C)C1=O [Compound 146] (cyclo([Ac5c][NMeGly(cPent)][d(β3hA)][NMeA]I[Sar]P[NMePhe(4-F)][Sar][hPhe(3-Cl-4-CF3)]P)) | > 500 nM
COC[C@@H]1NC(=O)[C@H](CC(C)C)N(C)C(=O)C[C@@H](C(=O)N2CCCCC2)N(C)C(=O)[C@H](C2CCCCC2)N(C)C(=O)C2(CCCC2)NC(=O)[C@@H]2CCCN2C(=O)[C@H](CCc2ccc(C(F)(F)F)c(Cl)c2)NC(=O)CN(C)C(=O)[C@H](CC2CCCCC2)N(C)C(=O)CN(C)C(=O)CN(C)C1=O [Compound 148] ([NMeL]S(Me)[Sar][Sar][NMeCha][Sar][hPhe(3-Cl-4-CF3)]P[Ac5c][NMeChg][NMeD]-Piperidide; lactam N-11) | > 500 nM
CC[C@H](C)[C@@H]1NC(=O)[C@H](CC(C)C)N(C)C(=O)C[C@@H](C)NC(=O)[C@H](C(C)C)N(C)C(=O)[C@](C)(CC)NC(=O)[C@@H]2CCCN2C(=O)[C@H](CCc2ccc(C(F)(F)F)c(Cl)c2)NC(=O)CN(C)C(=O)[C@H](CC2CCCCC2)N(C)C(=O)CN(C)C(=O)CN(C)C1=O [Compound 149] (cyclo(I[Sar][Sar][NMeCha][Sar][hPhe(3-Cl-4-CF3)]P[Iva][NMeV][d(β3hA)][NMeL])) | > 500 nM
CC[C@H](C)[C@@H]1NC(=O)[C@H](C(C)C)N(C)C(=O)C[C@@H](C)NC(=O)[C@H](CC(C)C)N(C)C(=O)C2(CCCC2)NC(=O)[C@H](CC(C)C)N(C)C(=O)[C@H](CCc2ccc(C(F)(F)F)c(Cl)c2)NC(=O)CN(C)C(=O)[C@H](Cc2ccc(Cl)cc2)N(C)C(=O)[C@@H]2CCN2C(=O)CN(C)C1=O [Compound 158] (cyclo([Ac5c][NMeL][d(β3hA)][NMeV]I[Sar][Aze][NMePhe(4-Cl)][Sar][hPhe(3-Cl-4-CF3)][NMeL])) | > 500 nM
CC[C@H](C)[C@@H]1NC(=O)[C@H](CC(C)C)N(C)C(=O)C[C@@H](C(=O)N2CCCCC2)N(C)C(=O)[C@H](C2CCCCC2)N(C)C(=O)C2(CCCC2)NC(=O)[C@@H]2CCCN2C(=O)[C@H](CCc2ccc(C(F)(F)F)c(Cl)c2)NC(=O)CN(C)C(=O)[C@H](CCOC)N(C)C(=O)CN(C)C(=O)CN(C)C1=O [Compound 159] ([NMeL]I[Sar][Sar][NMehSer](Me)[Sar][hPhe(3-Cl-4-CF3)]P[Ac5c][NMeChg][NMeD]-Piperidide; lactam N-11) | > 500 nM
CC[C@H](C)[C@@H]1NC(=O)[C@H](CC(C)C)N(C)C(=O)C[C@@H](C(=O)N2CCCCC2)N(C)C(=O)[C@H](CCS(C)(=O)=O)N(C)C(=O)C2(CCCC2)NC(=O)[C@@H]2CCCN2C(=O)[C@H](CCc2ccc(C(F)(F)F)c(Cl)c2)NC(=O)CN(C)C(=O)[C@H](CC2CCCCC2)N(C)C(=O)CN(C)C(=O)CN(C)C1=O [Compound 162] ([NMeL]I[Sar][Sar][NMeCha][Sar][hPhe(3-Cl-4-CF3)]P[Ac5c][NMeMet(O2)][NMeD]-Piperidide; lactam N-11) | > 500 nM
CC[C@H](C)[C@@H]1NC(=O)[C@H](CC(C)C)N(C)C(=O)C[C@@H](C(=O)N2CCCCC2)N(C)C(=O)[C@H](CC(C)C)NC(=O)C(C)(C)N(C)C(=O)[C@H](Cc2ccc(C)cc2)NC(=O)[C@H](Cc2cccc(I)c2)NC(=O)CN(C)C(=O)[C@H](CC2CCCCC2)N(C)C(=O)CN(C)C(=O)CN(C)C1=O [Compound 166] ([NMeL]I[Sar][Sar][NMeCha][Sar][Phe(3-I)][Phe(4-Me)][NMeAib]L[NMeD]-Piperidide; lactam N-11) | > 500 nM
CC[C@H](C)[C@@H]1NC(=O)[C@H](CC(C)C)N(C)C(=O)C[C@@H](C(=O)N2CCCCC2)N(C)C(=O)[C@H](CC(C)C)NC(=O)C(C)(C)N(C)C(=O)[C@H](Cc2ccc(OC)cc2)NC(=O)[C@H](Cc2cccc(I)c2)NC(=O)CN(C)C(=O)[C@H](CC2CCCCC2)N(C)C(=O)[C@@H]2CCN2C(=O)[C@H](C)N(C)C1=O [Compound 169] ([NMeL]I[NMeA][Aze][NMeCha][Sar][Phe(3-I)]Y(Me)[NMeAib]L[NMeD]-Piperidide; lactam N-11) | > 500 nM
CC[C@H](C)[C@@H]1NC(=O)[C@H](CC(C)C)N(C)C(=O)C[C@@H](C)N(C)C(=O)[C@H](CC(C)C)NC(=O)C(C)(C)N(C)C(=O)[C@H](CC(C)C)NC(=O)[C@H](CCc2ccc(C(F)(F)F)c(F)c2)NC(=O)CN(C)C(=O)[C@H](CC2CCCCC2)N(C)C(=O)[C@@H]2CCN2C(=O)CN(C)C1=O [Compound 178] (cyclo([Aze][NMeCha][Sar][hPhe(3-F,4-CF3)]L[NMeAib]L[NMedβ3hAla][NMeL]I[Sar])) | > 500 nM
CC[C@H](C)[C@@H]1NC(=O)[C@H](CC(C)C)N(C)C(=O)C[C@@H](C(=O)N(C)C)N(C)C(=O)[C@H](C2CCCC2)N(C)C(=O)C2(CCCC2)NC(=O)[C@H](Cc2cccc(Cl)c2)N(C)C(=O)[C@H](CCc2ccc(C(F)(F)F)c(Cl)c2)NC(=O)CN(C)C(=O)[C@H](CC2CCCCC2)N(C)C(=O)[C@@H]2CCN2C(=O)[C@H](C)N(C)C1=O [Compound 179] ([NMeL]I[NMeA][Aze][NMeCha][Sar][hPhe(3-Cl-4-CF3)][NMePhe(3-Cl)][Ac5c][NMeGly(cPent)][NMeD]-NMe2; lactam N-11) | > 500 nM
CC[C@H](C)[C@@H]1NC(=O)[C@H](CC(C)C)N(C)C(=O)C[C@@H](C(=O)N2CCCCC2)N(C)C(=O)[C@H](C(C)C)N(C)C(=O)C2(CCCC2)NC(=O)[C@@H]2CCCN2C(=O)[C@H](CCc2ccc(C(F)(F)F)c(Cl)c2)NC(=O)CN(C)C(=O)[C@H](CC2CCCCC2)N(C)C(=O)[C@@H]2CCN2C(=O)[C@H](CCC(=O)NC)N(C)C1=O [Compound 180] ([NMeL]I[NMeE](NHMe)[Aze][NMeCha][Sar][hPhe(3-Cl-4-CF3)]P[Ac5c][NMeV][NMeD]-Piperidide; lactam N-11) | > 500 nM
CC[C@H](C)[C@@H]1NC(=O)[C@H](CC(C)C)N(C)C(=O)C[C@@H](C)NC(=O)[C@H](C2CCC2)N(C)C(=O)C2(CCCC2)NC(=O)[C@@H]2CCCN2C(=O)[C@H](CCc2ccc(C(F)(F)F)c(Cl)c2)NC(=O)CN(C)C(=O)[C@H](CC2CCCCC2)N(C)C(=O)CN(C)C(=O)CN(C)C1=O [Compound 183] (cyclo([Ac5c][NMeGly(cBu)][d(β3hA)][NMeL]I[Sar][Sar][NMeCha][Sar][hPhe(3-Cl-4-CF3)]P)) | > 500 nM
CC[C@H](C)[C@@H]1NC(=O)[C@H](CC(C)C)N(C)C(=O)C[C@@H](C)NC(=O)[C@H](C(C)C)N(C)C(=O)C2(CCCC2)NC(=O)[C@@H]2CCCN2C(=O)[C@H](CCc2ccc(C(F)(F)F)c(Cl)c2)NC(=O)CN(C)C(=O)[C@H](CC2CCCCC2)N(C)C(=O)CN(C)C(=O)[C@@H]2CCCN2C1=O [Compound 185] (cyclo([Ac5c][NMeV][d(β3hA)][NMeL]IP[Sar][NMeCha][Sar][hPhe(3-Cl-4-CF3)]P)) | > 500 nM
